Assay results published in US20110045101A1, “FUNGICIDAL SUBSTITUTED AZOLES” (E.I. Du Pont De Nemours and Company, priority 2009, published 2011).
Marks after values point to notes of the source that are not given here.

Experiments:
Assay type in all cases: in vivo
Conditions in all cases: 100 = 100% disease control
[1] = test system: Septoria nodorum; test: Test F: wheat glume blotch on wheat seedlings, sprayed the day before inoculation, visual disease rating
Method in brief: (§1)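 Plants received a run-off spray at 200 ppm (equivalent to 500 g/ha) or, for starred values, 40 ppm. Formulation used acetone at 3% of volume in a 50/50 acetone/water mix carrying 250 ppm Trem® 014.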

[2] = test system: Alternaria solani; test: Test D: tomato early blight, sprayed the day before inoculation, visual disease rating
Method in brief: as §1

[3] = test system: Septoria tritici; test: Test G: wheat leaf blotch on wheat seedlings, sprayed the day before inoculation, visual disease rating
Method in brief: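 Visual disease ratings taken 19 days after transfer to a 20° C growth chamber, following 48 h in saturated atmosphere at 24° C. Seedlings had been sprayed to run-off one day before spore inoculation. Dose 200 ppm, or 40 ppm where starred.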

[4] = test system: Puccinia recondita f. sp. tritici; test: Test H: wheat leaf rust, test suspension sprayed after inoculation of wheat seedlings, visual disease rating
Method in brief: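 Wheat seedlings inoculated with P. recondita spores, held 24 h saturated at 20 °C, then 2 days in growth chamber at 20 °C; compound suspension (acetone/water with Trem 014) sprayed to run-off afterwards. Rated visually; 200 ppm (≈500 g/ha) unless marked *, which denotes 40 ppm.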

[5] = test system: Puccinia recondita f. sp. tritici; test: Test I: wheat leaf rust on wheat seedlings, sprayed the day before inoculation, visual disease rating
Method in brief: as §1

[6] = test system: Erysiphe graminis f. sp. tritici; test: Test J: wheat powdery mildew on wheat seedlings, sprayed the day before inoculation, visual disease rating
Method in brief: as §1

[7] = test system: Botrytis cinerea; test: Test C: tomato Botrytis on tomato seedlings, sprayed the day before inoculation, visual disease rating
Method in brief: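 Rate: 200 ppm sprayed to run-off, corresponding to 500 g/ha; flagged values used 40 ppm. Vehicle was aqueous acetone (1:1) plus 250 ppm surfactant, compounds predissolved in acetone at 3% of volume. Plants were tomato seedlings.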

[8] = 200 ppm, 0 = no control relative to controls
[9] = 40 ppm (marked *), 0 = no control

Compound	Test F disease control rating [1, 8] [%]	Test D disease control rating [2, 8] [%]	Test G disease control rating [3, 8] [%]	Test H disease control rating [4, 8] [%]	Test I disease control rating [5, 8] [%]	Test J disease control rating [6, 8] [%]	Test C disease control rating [7, 8] [%]	other results
COc1ccc(F)c(-c2c(Cl)nc(C)n2-c2ccc(Cl)c(C)c2)c1F [compound 425]	100	100	100	0	96	100	100	–
COc1cc(Cl)c(-c2c(Cl)nc(Br)n2-c2ccc(Cl)c(F)c2)c(Cl)c1 [compound 574]	60	0	100	0	98	97	100	–
COc1cc(F)c(-c2c(Cl)nc(Cl)n2-c2ccc(OC)nc2Cl)c(F)c1 [compound 515]	0	99	100	100	100	100	97	–
Fc1cc(-n2cnc(Br)c2-c2c(F)ccc(F)c2Cl)ccc1Cl [compound 409]	0	9	100	0	96	98	100	–
Cc1nc(Cl)c(-c2ccc(Cl)cc2)n1-c1c(F)cc([N+](=O)[O-])cc1F [compound 708]	82	0	99	7	80	89	100	–
COc1cc(F)c(-c2c(Cl)nc(C=NO)n2-c2ccc(F)cc2)c(F)c1 [Compound 349, 4-chloro-5-(2,6-difluoro-4-methoxyphenyl)-1-(4-fluorophenyl)-1H-imidazole-2-carboxaldehyde oxime]	–	–	–	–	–	–	–	pest or weed control at 200 ppm ([1]; Parastagonospora nodorum, 264 h, 200 ppm, 0 = no control relative to controls): 99%; pest or weed control at 200 ppm ([2]; Alternaria solani, 168 h, 200 ppm, 0 = no control relative to controls): 99%; pest or weed control at 200 ppm ([3]; Zymoseptoria tritici, 504 h, 200 ppm, 0 = no control relative to controls): 88%; pest or weed control at 200 ppm ([4]; Puccinia recondita, 96 h, 200 ppm, 0 = no control relative to controls): 0%; pest or weed control at 200 ppm ([5]; Puccinia recondita, 168 h, 200 ppm, 0 = no control relative to controls): 99%; pest or weed control at 200 ppm ([6]; Blumeria graminis, 168 h, 200 ppm, 0 = no control relative to controls): 95%; pest or weed control at 200 ppm ([7]; Botrytis cinerea, 120 h, 200 ppm, 0 = no control relative to controls): 100%
COc1ccc(F)c(-c2c(Br)nc(Cl)n2-c2ccc(F)cc2)c1F [compound 472]	100	100	96	80	100	100	100	–
COc1cc(F)c(-c2c(Cl)nc(C)n2-c2cccc(OC(F)(F)F)c2)c(F)c1 [compound 589]	98	99	98	97	100	100	100	–
Cc1nc(Br)n(-c2ccc(F)cc2Cl)c1-c1ccc(Cl)cc1 [compound 339]	78	99	95	0	96	96	100	–
Clc1ccc(-c2c(Cl)nc(Br)n2Cc2cccc(Cl)c2)cc1 [compound 290]	–	–	–	–	–	–	–	Test F disease control rating ([1]; 200 ppm, 0 = no control): 0%; Test D disease control rating ([2]; 200 ppm, 0 = no control): 0%; Test G disease control rating ([3]; 200 ppm, 0 = no control): 85%; Test H disease control rating ([4]; 200 ppm, 0 = no control): 11%; Test I disease control rating ([5]; 200 ppm, 0 = no control): 19%; Test J disease control rating ([6]; 200 ppm, 0 = no control): 0%; Test C disease control rating ([7]; 200 ppm, 0 = no control): 95%
Cc1nc(C)n(-c2ccc(Cl)cc2)c1-c1c(F)ccc(F)c1F [compound 416]	–	–	–	–	–	–	–	Test F disease control rating [1, 9]: 0* %; Test D disease control rating [2, 9]: 100* %; Test G disease control rating [3, 9]: 97* %; Test H disease control rating [4, 9]: 0* %; Test I disease control rating [5, 9]: 26* %; Test J disease control rating [6, 9]: 99* %; Test C disease control rating [7, 9]: 100* %
COc1ccc(F)c(-c2c(Cl)nc(Cl)n2-c2cccc(C)c2)c1F [compound 391]	0	99	94	0	99	100	100	–
Cc1nc(Cl)n(-c2c(F)cccc2F)c1-c1ccc(Cl)cc1 [compound 466]	–	–	–	–	–	–	–	Test F disease control rating ([1]; 40 ppm (marked *)): 0* %; Test D disease control rating ([2]; 40 ppm (marked *)): 100* %; Test G disease control rating ([3]; 40 ppm (marked *)): 82* %; Test H disease control rating ([4]; 40 ppm (marked *)): 0* %; Test I disease control rating ([5]; 40 ppm (marked *)): 93* %; Test J disease control rating ([6]; 40 ppm (marked *)): 100* %; Test C disease control rating ([7]; 40 ppm (marked *)): 99* %
COc1cc(F)c(-c2c(Cl)nc(Cl)n2-c2ccc(C(F)(F)F)nc2)c(F)c1 [compound 488]	100	100	93	41	100	100	99	–
COc1ccc(-c2c(Cl)nc(Cl)n2-c2ccc(Cl)c(F)c2)cn1 [compound 434]	0	9	99	0	68	76	96	–
COc1cc(F)c(-c2c(Cl)nc(Cl)n2-c2ccc(C)c(C#N)c2)c(F)c1 [compound 572]	–	–	–	–	–	–	–	Test F disease control rating ([1]; 40 ppm (marked *)): 92* %; Test D disease control rating ([2]; 40 ppm (marked *)): 99* %; Test G disease control rating ([3]; 40 ppm (marked *)): 95* %; Test H disease control rating ([4]; 40 ppm (marked *)): 0* %; Test I disease control rating ([5]; 40 ppm (marked *)): 99* %; Test J disease control rating ([6]; 40 ppm (marked *)): 71* %; Test C disease control rating ([7]; 40 ppm (marked *)): 100* %
COc1cc(F)c(-n2c(Br)nc(C)c2-c2cccc(F)c2)c(F)c1 [compound 687]	–	–	–	–	–	–	–	Test F disease control rating ([1]; 40 ppm (marked *)): 99* %; Test D disease control rating ([2]; 40 ppm (marked *)): 100* %; Test G disease control rating ([3]; 40 ppm (marked *)): 98* %; Test H disease control rating ([4]; 40 ppm (marked *)): 100* %; Test I disease control rating ([5]; 40 ppm (marked *)): 100* %; Test J disease control rating ([6]; 40 ppm (marked *)): 100* %; Test C disease control rating ([7]; 40 ppm (marked *)): 100* %
Fc1cc(F)c(-c2c(Cl)nc(Br)n2-c2ccc(OC(F)(F)F)cc2)c(F)c1 [compound 606]	0	100	99	0	28	100	99	–
N#Cc1ccc(F)c(-c2c(Cl)nc(Cl)n2-c2cccc(F)c2)c1F [compound 681]	98	100	99	0	99	100	99	–
Fc1cc(F)c(-c2c(Cl)nc(Br)n2-c2cccc(OC(F)(F)F)c2)c(F)c1 [compound 605]	0	0	73	0	0	94	19	–
COc1cc(F)c(-c2c(N(C)C)ncn2Cc2ccc(Cl)cc2)c(F)c1 [compound 269]	–	–	–	–	–	–	–	Test F disease control rating ([1]; 200 ppm, 0 = no control): 87%; Test D disease control rating ([2]; 200 ppm, 0 = no control): 0%; Test G disease control rating ([3]; 200 ppm, 0 = no control): 83%; Test H disease control rating ([4]; 200 ppm, 0 = no control): 9%; Test I disease control rating ([5]; 200 ppm, 0 = no control): 9%; Test J disease control rating ([6]; 200 ppm, 0 = no control): 0%; Test C disease control rating ([7]; 200 ppm, 0 = no control): 100%
Cc1ccc(-n2cnc(Br)c2-c2c(F)ccc(F)c2Cl)cc1 [compound 410]	0	99	100	0	99	100	98	–
COc1ccc(F)c(-c2c(Cl)nc(Cl)n2-c2cccc(OC(F)F)c2)c1F [compound 400]	99	100	94	0	99	100	100	–
